Results reported in the supplement of paper PMC11061612.

Legend:
Assay in all cases: Bliss excess, mean over the matrix (fraction); higher = more synergy
AM-38 (Glioblastoma) = system: AM-38 (Glioblastoma)
In short: (§1)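 Bliss excess equals the observed combination effect minus the expected value EA + EB − EA·EB, where EA and EB are the effects of each agent alone. Combination Emax is the second-highest inhibition within the matrix. Inhibition was scaled from CellTiter-Glo 2.0 luminescence, with 0 set by vehicle wells and 1 by blank wells, after 72 hours of two-drug dosing of cells plated in 1536-well plates.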

[1] = system: BHT-101 (Thyroid Gland Carcinoma)
In short: as §1

[2] = system: BxPC-3 (Pancreatic Carcinoma)
In short: as §1

[3] = system: IA-LM (Non-Small Cell Lung Carcinoma)
In short: as §1

IST-MEL1 (Melanoma) = system: IST-MEL1 (Melanoma)
In short: as §1

[4] = system: KP-4 (Pancreatic Carcinoma)
In short: as §1

[5] = system: MDA-MB-415 (Breast Carcinoma)
In short: as §1

[6] = system: MONO-MAC-6 (Acute Myeloid Leukemia)
In short: as §1

[7] = system: NAMALWA (Burkitt's Lymphoma)
In short: as §1

NCI-H2373 (Mesothelioma) = system: NCI-H2373 (Mesothelioma)
In short: as §1

[8] = system: PL4 (Pancreatic Carcinoma)
In short: as §1

[9] = system: Raji (Burkitt's Lymphoma)
In short: as §1

[10] = system: SCC-4 (Oral Cavity Carcinoma)
In short: as §1

[11] = system: SK-CO-1 (Colorectal Carcinoma)
In short: as §1

[12] = system: SNU-423 (Hepatocellular Carcinoma)
In short: as §1

[13] = system: SUP-M2 (T-Cell Non-Hodgkin's Lymphoma)
In short: as §1

[14] = system: SiHa (Cervical Carcinoma)
In short: as §1

[15] = system: T84 (Colorectal Carcinoma)
In short: as §1

WM35 (Melanoma) = system: WM35 (Melanoma)
In short: as §1

[16] = system: ZR-75-30 (Breast Carcinoma)
In short: as §1

Structure (SMILES) | Bliss excess (AM-38 (Glioblastoma)) | Bliss excess [1] | Bliss excess [2] | Bliss excess [3] | Bliss excess (IST-MEL1 (Melanoma)) | Bliss excess [4] | Bliss excess [5] | Bliss excess [6] | Bliss excess [7] | Bliss excess (NCI-H2373 (Mesothelioma)) | Bliss excess [8] | Bliss excess [9] | Bliss excess [10] | Bliss excess [11] | Bliss excess [12] | Bliss excess [13] | Bliss excess [14] | Bliss excess [15] | Bliss excess (WM35 (Melanoma)) | Bliss excess [16]
Cn1cnc2c(F)c(Nc3ccc(Br)cc3Cl)c(C(=O)NOCCO)cc21 [Selumetinib] + C[C@@H]1COCCN1C2=NC(=NC(=C2)C3(CC3)[S@](=N)(=O)C)C4=C5C=CNC5=NC=C4 [AZD6738] (first compound max 10 µM, 7x7, partner max 10 µM) | 0.104 | -0.0174 | -0.0197 | 0.0061 | -0.0217 | -0.0712 | -0.0395 | -0.0052 | -0.0083 | -0.0019 | 0.0866 | -0.0273 | -0.0352 | -0.112 | -0.0238 | 0.012 | 0.0006 | 0.1 | 0.0172 | -0.0495
CC(=O)Nc1cccc(-n2c(=O)n(C3CC3)c(=O)c3c(Nc4ccc(I)cc4F)n(C)c(=O)c(C)c32)c1 [Trametinib] + Cc1nc(-c2cn3c(n2)-c2ccc(-c4cnn(C(C)(C)C(N)=O)c4)cc2OCC3)n(C(C)C)n1 [Taselisib] (first compound max 1 µM, 7x7, partner max 10 µM) | 0.117 | 0.115 | 0.354 | 0.0972 | 0.122 | 0.0745 | -0.0162 | 0.244 | 0.0825 | 0.0818 | 0.0796 | 0.0075 | 0.147 | 0.0523 | 0.0727 | 0.106 | 0.0162 | 0.233 | 0.124 | 0.0155
CC1(C)CCC(CN2CCN(c3ccc(C(=O)NS(=O)(=O)c4ccc(NCC5CCOCC5)c([N+](=O)[O-])c4)c(Oc4cnc5[nH]ccc5c4)c3)CC2)=C(c2ccc(Cl)cc2)C1 [Venetoclax] + C1CN(CCC1(C(=O)N[C@@H](CCO)C2=CC=C(C=C2)Cl)N)C3=NC=NC4=C3C=CN4 [Capivasertib] (first compound max 1 µM, 7x7, partner max 3 µM) | -0.0742 | -0.0312 | -0.0171 | -0.057 | -0.0762 | -0.0623 | -0.102 | -0.0214 | -0.0126 | -0.0774 | -0.0363 | -0.0008 | -0.0792 | -0.0247 | -0.0386 | -0.0232 | -0.002 | -0.0518 | -0.0456 | -0.0324
CC1(C)CCC(CN2CCN(c3ccc(C(=O)NS(=O)(=O)c4ccc(NCC5CCOCC5)c([N+](=O)[O-])c4)c(Oc4cnc5[nH]ccc5c4)c3)CC2)=C(c2ccc(Cl)cc2)C1 [Venetoclax] + C=CCn1c(=O)c2cnc(Nc3ccc(N4CCN(C)CC4)cc3)nc2n1-c1cccc(C(C)(C)O)n1 [AZD1775] (first compound max 1 µM, partner max 1 µM) | -0.0561 | -0.0626 | 0.092 | -0.0386 | 0.0462 | -0.0385 | -0.028 | 0.0336 | 0.0438 | -0.0789 | -0.0751 | -0.023 | 0.0032 | -0.04 | -0.0472 | 0.03 | -0.0527 | -0.0498 | -0.0447 | -0.0286
CC1(C)CCC(CN2CCN(c3ccc(C(=O)NS(=O)(=O)c4ccc(NCC5CCOCC5)c([N+](=O)[O-])c4)c(Oc4cnc5[nH]ccc5c4)c3)CC2)=C(c2ccc(Cl)cc2)C1 [Venetoclax] + CCN(CCO)CCCOc1ccc2c(Nc3cc(CC(=O)Nc4cccc(F)c4)[nH]n3)ncnc2c1 [AZD2811] (first compound max 1 µM, 7x7, partner max 1 µM) | -0.0506 | -0.0256 | 0.0003 | -0.053 | 0.0278 | -0.0338 | -0.0081 | 0.101 | 0.0894 | -0.0047 | -0.0704 | -0.016 | -0.0404 | 0.0082 | -0.0381 | 0.0126 | -0.0107 | -0.0249 | -0.0397 | -0.0575
CC1(C)CCC(CN2CCN(c3ccc(C(=O)NS(=O)(=O)c4ccc(NCC5CCOCC5)c([N+](=O)[O-])c4)c(Oc4cnc5[nH]ccc5c4)c3)CC2)=C(c2ccc(Cl)cc2)C1 [Venetoclax] + CN(C)CCCOc1ccc(-c2ccc3ncc4c(c3c2)n(C2CCOCC2)c(=O)n4C)cn1 [AZD0156] (first compound max 1 µM, 7x7, partner max 1 µM) | -0.0183 | -0.0272 | -0.0304 | -0.0238 | -0.0207 | -0.0344 | -0.0869 | 0.0233 | 0.0387 | -0.0564 | -0.0397 | 0.0279 | -0.024 | -0.0119 | -0.0429 | 0.0191 | -0.0419 | -0.0452 | -0.0197 | -0.0422
CC1(C)CCC(CN2CCN(c3ccc(C(=O)NS(=O)(=O)c4ccc(NCC5CCOCC5)c([N+](=O)[O-])c4)c(Oc4cnc5[nH]ccc5c4)c3)CC2)=C(c2ccc(Cl)cc2)C1 [Venetoclax] + COc1cc(Nc2ncc3c(n2)-c2ccc(Cl)cc2C(c2c(F)cccc2OC)=NC3)ccc1C(=O)O [Alisertib] (first compound max 1 µM, 7x7, partner max 10 µM) | 0.0101 | -0.0636 | -0.0291 | -0.0469 | -0.0547 | -0.0542 | -0.0711 | 0.164 | -0.0072 | -0.0293 | -0.0531 | -0.006 | 0.0421 | 0.0901 | 0.0176 | -0.0043 | -0.0669 | 0.0136 | -0.0338 | -0.0603
